Measurements: US11932600B2, “Biaryl derivative” (DAIICHI SANKYO COMPANY, LIMITED, priority 2018, dated 2024)

How the values were obtained:
human TNAP = target: T1, human TNAP (Homo sapiens, UniProt P05186); assay: Inhibitory test of TNAP activity (pNPP substrate, p-nitrophenol production); format: biochemical; conditions: human TNAP from culture supernatant of transfected COS1 cells, 60 minutes at room temperature, ABS 405 nm
T1 construct: host or cells: COS1 cells, concentrated and dialyzed culture supernatant
T1 sequence (P05186 18-502 limits assumed): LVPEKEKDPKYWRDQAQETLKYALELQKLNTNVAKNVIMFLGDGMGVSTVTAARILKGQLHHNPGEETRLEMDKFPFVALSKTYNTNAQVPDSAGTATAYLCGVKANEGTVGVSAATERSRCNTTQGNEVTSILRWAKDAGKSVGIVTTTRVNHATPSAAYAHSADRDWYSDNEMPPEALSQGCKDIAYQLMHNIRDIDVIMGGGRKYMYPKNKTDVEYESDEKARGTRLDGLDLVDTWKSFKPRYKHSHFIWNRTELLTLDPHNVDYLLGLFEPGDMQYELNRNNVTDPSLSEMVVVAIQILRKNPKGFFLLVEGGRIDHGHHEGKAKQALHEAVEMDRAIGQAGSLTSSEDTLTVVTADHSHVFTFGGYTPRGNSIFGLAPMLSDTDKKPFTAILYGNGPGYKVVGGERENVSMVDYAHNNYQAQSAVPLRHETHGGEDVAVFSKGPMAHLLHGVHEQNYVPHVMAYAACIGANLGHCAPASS
Method: <Test Examples> (Test Example 1) Inhibitory Test of TNAP Activity
COS1 cells (DS Pharma Biomedical Co., Ltd.) were transfected with human TNAP (OriGene Technologies, Inc.) using Lipofectamine LTX & Plus reagent (Invitrogen Corp.). On the next day, the medium was replaced with a fresh medium, and the cells were cultured in an incubator for 3 days. After 3 days, the culture supernatant was collected and concentrated by centrifugation at 5000 G for 30 minutes using Amicon 14, 10^4 cut (Merck Millipore). The concentrated culture supernatant was dialyzed against 5 L of 50 mM Tris/200 mM NaCl/1 mM MgCl2/20 μM ZnCl2 twice and used as an enzyme source (enzyme solution). The substrate pNPP (ProteoChem Inc.) was adjusted to 3.1 mM with Milli-Q water, and a solution of each test compound dissolved in dimethyl sulfoxide (DMSO; Wako Pure Chemical Industries, Ltd.) by 6 serial dilutions at a 5-fold common ratio from 100 μM or DMSO was added thereto at a final concentration of 1% by volume. The enzyme solution adjusted to 2 μg/mL with an assay buffer (200 mM Tris/2 mM MgCl2/0.04 mM ZnCl2/0.01% Tween 20) was added in the same amount of the substrate solution and incubated at room temperature for 60 minutes. Then, the absorbance (ABS: 405 nm) was measured using a microplate reader (model plus 384, Molecular Devices, LLC), and the concentration of produced p-nitrophenol was calculated.

[1] = test system: plasma ALP (80-90% containing TNAP); assay: Inhibitory test of plasma TNAP activity in B6 mouse; format: in vivo; conditions: 0.3 mg/kg orally in 0.5% methylcellulose, average inhibition from 0 hour to 6 hours after administration, activity before administration = 100%
Method: (Test Example 3) Inhibitory Test of Plasma TNAP Activity in B6 Mouse (Charles River Laboratories Japan, Inc.)
After blood sampling from the tail vein using a heparin-treated hematocrit capillary tube (EM Meister Hematocrit Capillary Tube, AS ONE Corp.) (as the sample before compound administration), each test compound suspended in a 0.5% methylcellulose solution (powder purchased from Wako Pure Chemical Industries, Ltd. was adjusted to 0.5% with Otsuka distilled water) was administered orally to the mouse (0.3 mg/kg). 1, 2, 4, 6, and 24 hours after the administration, blood was collected from the tail vein using a heparin-treated hematocrit capillary tube to obtain a plasma sample. The plasma sample was added to an assay buffer (1 M Tris, 1 M MgCl2, 20 mM ZnCl2, and water, pH 7.5), and the mixture was left standing for 5 minutes. Then, the absorbance at 405 nm was measured and used as a blank. The substrate pNPP was added to the plasma sample and incubated at room temperature for 180 minutes. Then, the absorbance (ABS: 405 nm) was measured using a microplate reader (model plus 384, Molecular Devices, LLC), and the concentration of produced p-nitrophenol was calculated. The blank was subtracted from all measurement values to calculate TNAP activity at each time point with the TNAP activity of the sample before compound administration defined as 100%.
It was calculated according to the following expression: 100−((plasma ALP activity at 0 hr+plasma ALP activity at 1 hr)*1/2+(plasma ALP activity at 1 hr+plasma ALP activity at 2 hr)*1/2+(plasma ALP activity at 2 hr+plasma ALP activity at 4 hr)*2/2+(plasma ALP activity at 4 hr+plasma ALP activity at 6 hr)*2/2)/6.

Row | SMILES | IC50 (human TNAP) [nM] | Plasma ALP Inhibition (6 h ave. inhibition %) [1] [%]
1 | Cc1cncc(S(=O)(=O)Nc2c(F)cc(Cl)cc2-c2ccc(CC(=O)O)cc2)c1 [Example 11, {5′-Chloro-3′-fluoro-2′-[(5-methylpyridine-3-sulfonyl)amino][1,1′-biphenyl]-4-yl}acetic acid] | 0.14 | 79.0
2 | CCc1cncc(S(=O)(=O)Nc2c(F)cc(Cl)cc2-c2ccc(CCC(=O)O)cc2)c1 [Example 29, 3-{5′-Chloro-2′-[(5-ethylpyridine-3-sulfonyl)amino]-3′-fluoro[1,1′-biphenyl]-4-yl}propanoic acid] | 0.18 | 70.9

Further lines, with some results ahead:

Row | IC50 (human TNAP) [nM] | SMILES | Plasma ALP Inhibition (6 h ave. inhibition %) [1] [%]
3 | 0.15 | CCc1cncc(S(=O)(=O)Nc2c(F)cc(Cl)cc2-c2ccc(OC(C)(C)C(=O)O)cc2)c1 [Example 7, 2-({5′-Chloro-2′-[(5-ethylpyridine-3-sulfonyl)amino]-3′-fluoro[1,1′-biphenyl]-4-yl}oxy)-2-methylpropanoic acid] | 69.0
4 | 0.18 | Cc1cncc(S(=O)(=O)Nc2c(F)cc(Cl)cc2-c2ccc(CCC(=O)O)cc2)c1C [Example 31, 3-{5′-Chloro-2′-[(4,5-dimethylpyridine-3-sulfonyl)amino]-3′-fluoro[1,1′-biphenyl]-4-yl}propanoic acid] | 82.2
5 | 0.15 | Cc1cncc(S(=O)(=O)Nc2c(F)cc(Cl)cc2-c2ccc(OC(C)(C)C(=O)O)cc2)c1C [Example 8, 2-({5′-Chloro-2′-[(4,5-dimethylpyridine-3-sulfonyl)amino]-3′-fluoro[1,1′-biphenyl]-4-yl}oxy)-2-methylpropanoic acid] | 76.2
